Among the data in patent publication US20260028337A1, “COMPOUND FOR INHIBITING IRAK4 ACTIVITY AND USE THEREOF” (SHENZHEN ZHONGGE BIOLOGICAL TECHNOLOGY CO., LTD., priority 2022, published 2026) are IC50 values, retold here.

In this assay the target is IRAK4 kinase (Homo sapiens (Human), UniProt Q9NWZ3). Kind of assay: IRAK4 Kinase Inhibition Assay (Cisbio HTRF KinEASE-STK S1 kit). The conditions noted are these: IRAK4 kinase protein 10 nM, ATP 200 μM, STK Substrate 1-biotin 1 μM, 37° C. 2 h, read-out: IC50 (nM), IRAK4 kinase inhibitory activity. Type of assay: biochemical. As for the experimental part: Test Example 1. IRAK4 Kinase Inhibition Assay
In this assay, Cisbio HTRF KinEASE-STK SI kit (62S 1 PEB) was used, in which assay/detection buffer, STK Substrate 1-biotin, Streptavidin-XL665, STK Antibody-Cryptate were contained.
After adding compound/DMSO to a 384-well plate (PerkinElmer 6008280) using Echo 665, 5 μL of 2-fold reaction concentration of IRAK4 kinase protein (final concentration: 10 nM) dissolved with assay buffer [1 volume of 5× kinase buffer+20 mM magnesium chloride (Sigma) solution+1 mM DTT (Alfa Aesar) solution+4 volumes deionized water] was added, followed by sealing the shallow well plate, shaking and then centrifuging at 1000 rpm for 1 min, and incubating at room temperature for 5 min; then 5 μL of 2-fold reaction concentration of a 1:1 mixture of STK Substrate 1-biotin (final concentration: 1 μM) and ATP (Sigma A1852) (final concentration: 200 μM) formulated with assay buffer was added, followed by sealing the shallow well plate, shaking and then centrifuging at 1000 rpm for 1 min, and incubating at 37° C. for 2 h, and then 10 μL of a 1:1 mixture of Streptavidin-XL665 (final concentration: 62.5 nM) and STK-antibody-cryptate dissolved with detection buffer was added, followed by sealing the shallow well plate, shaking and then centrifuging at 1000 rpm for 1 min, and incubating at room temperature for 1 h, and thereafter reading the value at the wavelength of 620 nm/665 nm using a microplate reader. The data were analyzed using Prism 9.3 software, and the IC50 value of IRAK4 kinase inhibition was fitted using a four parameter Logistic equation.

Where a name gives a salt, the structure may show the parent alone.

IRAK4 kinase, sequence (Q9NWZ3 whole entry): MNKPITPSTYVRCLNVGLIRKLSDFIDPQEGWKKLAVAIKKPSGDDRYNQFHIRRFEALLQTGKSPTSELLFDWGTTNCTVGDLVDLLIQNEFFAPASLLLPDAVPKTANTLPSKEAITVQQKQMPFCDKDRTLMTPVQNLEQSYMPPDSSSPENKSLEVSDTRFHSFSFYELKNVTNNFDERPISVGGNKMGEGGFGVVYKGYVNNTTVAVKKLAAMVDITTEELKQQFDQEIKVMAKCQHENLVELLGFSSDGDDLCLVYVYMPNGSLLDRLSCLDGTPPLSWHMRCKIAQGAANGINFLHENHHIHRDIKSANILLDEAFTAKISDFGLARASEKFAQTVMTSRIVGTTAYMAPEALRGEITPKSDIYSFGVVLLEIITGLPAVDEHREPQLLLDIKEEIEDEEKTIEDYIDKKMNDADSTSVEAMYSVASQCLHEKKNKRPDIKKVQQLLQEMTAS

Take `FC(F)c1nn(C2CCCCC2)cc1-n1cc(-c2cnn3ccc(N4C[C@H]5C[C@@H]4CO5)nc23)nn1` [Compound 1A, (1R,4R)-5-(3-(1-(1-cyclohexyl-3-(difluoromethyl)-1H-pyrazol-4-yl)-1H-1,2,3-triazol-4-yl]pyrazolo[1,5-a]pyrimidin-5-yl)-2-oxa-5-azabicyclo[2.2.1]heptane]: the 50% inhibitory concentration (IC50) (commonly the concentration that inhibits the measured activity by half) lay in the range of 100 to 1000 nM. As to `N#Cc1cnc2c(-c3cn(-c4cn(C5CCCCC5)nc4C(F)F)nn3)cnn2c1` [Compound 3A, 3-(1-(1-cyclohexyl-3-(difluoromethyl)-1H-pyrazol-4-yl)-1H-1,2,3-triazol-4-yl) pyrazolo[1,5-a]pyrimidine-6-carbonitrile], the IC50 is 100 to 1000 nM. In the case of `FC(F)c1nn(C2CCCCC2)cc1-n1cc(-c2cnn3ccc(N4CCOCC4)nc23)nn1` [Compound 4A, 4-(3-(1-(1-cyclohexyl-3-(difluoromethyl)-1H-pyrazol-4-yl)-1H-1,2,3-triazol-4-yl)pyrazolo[1,5-a]pyrimidin-5-yl) morpholine] it was < 100 nM.

As for `N#Cc1cnc2c(ccn2-c2cn(-c3cn(C4CCCCC4)nc3C(F)F)nn2)c1` [Compound 43A, 1-(1-(1-cyclohexyl-3-(difluoromethyl)-1H-pyrazol-4-yl)-1H-1,2,3-triazol-4-yl]-1H-pyrrolo[2,3-b]pyridine-5-carbonitrile], the IC50 was in the range of 1000 to 5000 nM. As for `FC(F)c1nn(C2CCCCC2)cc1-n1cc(-n2ccc3ccc(N4CCOCC4)nc32)nn1` [Compound 45A], the IC50 lay within 1000 to 5000 nM. In the case of `Cn1cc(-n2cc(-c3cnn4ccc(N5C[C@H]6C[C@@H]5CO6)nc34)nn2)c(C(F)F)n1` [Compound 46A], the IC50 is 1000 to 5000 nM. Turning to `FC(F)c1nn(C2CCCCC2)cc1-n1cc(-c2cnn3cccnc23)nn1` [Compound 56A, 3-(1-(1-cyclohexyl-3-(difluoromethyl)-1H-pyrazol-4-yl)-1H-1,2,3-triazol-4-yl]pyrazolo[1,5-a]pyrimidine], the IC50 is 1000 to 5000 nM. In the case of `NC(=O)c1cnn2c(-c3cn(-c4cn(C5CCCCC5)nc4C(F)F)nn3)ccc2c1` [Compound 60A, 7-(1-(1-cyclohexyl-3-(difluoromethyl)-1H-pyrazol-4-yl)-1H-1,2,3-triazol-4-yl) pyrrolo[1,2-b]pyridazine-3-formamide] it was < 100 nM; in that of `O=C(O)c1cnn2c(-c3cn(-c4cn(C5CCCCC5)nc4C(F)F)nn3)ccc2c1` [Compound 61A, 7-(1-(1-cyclohexyl-3-(difluoromethyl)-1H-pyrazol-4-yl)-1H-1,2,3-triazol-4-yl]pyrrolo[1,2-b]pyridazine-3-carboxylic acid], 100 to 1000 nM.

For `O=C(c1cnn2c(-c3cn(-c4cn(C5CCCCC5)nc4C(F)F)nn3)ccc2c1)N1CCNCC1` [Compound 64A, (7-(1-(1-cyclohexyl-3-(difluoromethyl)-1H-pyrazol-4-yl)-1H-1,2,3-triazol-4-yl]pyrrolo[1,2-b]pyridazin-3-yl) (piperazin-1-yl) methanone], the IC50 was in the range of 1000 to 5000 nM. Take `NC(=O)c1cnc2c(ccn2-c2cn(-c3cn(C4CCCCC4)nc3C(F)F)nn2)c1` [Compound 65A, 1-(1-(1-cyclohexyl-3-(difluoromethyl)-1H-pyrazol-4-yl)-1H-1,2,3-triazol-4-yl)-1H-pyrrolo[2,3-b]pyridine-5-formamide]: the IC50 is 100 to 1000 nM. Regarding `O=C(O)c1cnc2c(ccn2-c2cn(-c3cn(C4CCCCC4)nc3C(F)F)nn2)c1` [Compound 66A, 1-(1-(1-cyclohexyl-3-(difluoromethyl)-1H-pyrazol-4-yl)-1H-1,2,3-triazol-4-yl)-1H-pyrrolo[2,3-b]pyridine-5-carboxylic acid], the IC50 fell in the range of 1000 to 5000 nM. In the case of `O=C(NC1CCNC1)c1cnn2c(-c3cn(-c4cn(C5CCCCC5)nc4C(F)F)nn3)ccc2c1` (stereo not shown) [Compound 67A, 7-(1-(1-cyclohexyl-3-(difluoromethyl)-1H-pyrazol-4-yl)-1H-1,2,3-triazol-4-yl]-N-(pyrrolidin-3-yl)pyrrolo[1,2-b]pyridazine-3-formamide] it was > 5000 nM. The figure for `O=C(NC1CNCC1(F)F)c1cnn2c(-c3cn(-c4cn(C5CCCCC5)nc4C(F)F)nn3)ccc2c1` (stereo not shown) [Compound 68A, 7-(1-(1-cyclohexyl-3-(difluoromethyl)-1H-pyrazol-4-yl)-1H-1,2,3-triazol-4-yl]-N-(4,4-difluoropyrrolidin-3-yl)pyrrolo[1,2-b]pyridazine-3-formamide] is 1000 to 5000 nM; for `FC(F)c1nn(C2CCNCC2)cc1-n1cc(-c2cnn3ccc(N4CCOCC4)nc23)nn1` [Compound 69A, 4-(3-(1-(3-(difluoromethyl)-1-(piperidin-4-yl)-1H-pyrazol-4-yl)-1,2,3-triazol-4-yl]pyrazolo[1,5-a]pyrimidin-5-yl) morpholine] it is 100 to 1000 nM. In the case of `C[C@@H]1C[C@@H](n2cc(-n3cc(-c4cnn5ccc(N6CCOCC6)nc45)nn3)c(C(F)F)n2)CCN1` [Compound 72A] it was < 100 nM; in that of `C[C@@H]1C[C@H](n2cc(-n3cc(-c4cnn5ccc(N6CCOCC6)nc45)nn3)c(C(F)F)n2)CCN1` [Compound 73A], 100 to 1000 nM. In the case of `C[C@H]1CC(n2cc(-n3cc(-c4cnn5ccc(N6CCOCC6)nc45)nn3)c(C(F)F)n2)CCN1` (stereo partly drawn) [Compound 79A, 4-(3-(1-(3-(difluoromethyl)-1-((2S)-2-methylpiperidin-4-yl)-1H-pyrazol-4-yl)-1,2,3-triazol-4-yl)pyrazolo[1,5-a]pyrimidin-5-yl) morpholine], the IC50 was 100 to 1000 nM. In the case of `C[C@@H]1CC(n2cc(-n3cc(-c4cnn5ccc(N6CCOCC6)nc45)nn3)c(C(F)F)n2)CCN1` (stereo partly drawn) [Compound 80A, 4-(3-(3-difluoromethyl)-1-(2R)-2-methylpiperidin-4-yl)-1H-pyrazol-4-yl)-1H-1,2,3-triazol-4-yl)pyrazolo[1,5-a]pyrimidin-5-yl) morpholine hydrochloride] it was 100 to 1000 nM. The figure for `C[C@H]1COCCN1c1ccn2ncc(-c3cn(-c4cn(C5CCCCC5)nc4C(F)F)nn3)c2n1` [Compound 82A, (S)-4-(3-(1-(1-cyclohexyl-3-(difluoromethyl)-1H-pyrazol-4-yl)-1H-1,2,3-triazol-4-yl]pyrazolo[1,5-a]pyrimidin-5-yl)-3-methylmorpholine] is 100 to 1000 nM. `C[C@H]1CN(c2ccn3ncc(-c4cn(-c5cn(C6CCCCC6)nc5C(F)F)nn4)c3n2)CCO1` [Compound 83A, (2S)-4-(3-{1-[1-cyclohexyl-3-(difluoromethyl)-1H-pyrazol-4-yl]-1H-1,2,3-triazol-4-yl}pyrazolo[1,5-a]pyrimidin-5-yl)-2-methylmorpholine]: the concentration for half-maximal inhibition (IC50) was 100 to 1000 nM.

Turning to `NC(=O)c1cnn2c(-c3cn(-c4cn(C5CCNCC5)nc4C(F)F)nn3)ccc2c1` [Compound 84A, 7-(1-(3-(difluoromethyl)-1-(piperidin-4-yl)-1H-pyrazol-4-yl)-1H-1,2,3-triazol-4-yl)pyrrolo[1,2-b]pyridazine-3-formamide], the IC50 lay within 100 to 1000 nM. In the case of `CC1(C)CC(n2cc(-n3cc(-c4cnn5ccc(N6CCOCC6)nc45)nn3)c(C(F)F)n2)CCN1` (stereo not shown) [Compound 85A, 4-(3-(1-(3-(difluoromethyl)-1-(2,2-dimethylpiperidin-4-yl)-1H-pyrazol-4-yl)-1,2,3-triazol-4-yl]pyrazolo[1,5-a]pyrimidin-5-yl) morpholine] it was < 100 nM. The figure for `CC1(C)C[C@H](n2cc(-n3cc(-c4cnn5ccc(N6CCOCC6)nc45)nn3)c(C(F)F)n2)CCN1` [Compound 86A, (R)-4-(3-(1-(3-(difluoromethyl)-1-(2,2-dimethylpiperidin-4-yl)-1H-pyrazol-4-yl)-1,2,3-triazol-4-yl]pyrazolo[1,5-a]pyrimidin-5-yl) morpholine] is 100 to 1000 nM. In the case of `CC1(C)C[C@@H](n2cc(-n3cc(-c4cnn5ccc(N6CCOCC6)nc45)nn3)c(C(F)F)n2)CCN1` [Compound 87A, (S)-4-(3-(1-(3-(difluoromethyl)-1-(2,2-dimethylpiperidin-4-yl)-1H-pyrazol-4-yl)-1,2,3-triazol-4-yl]pyrazolo[1,5-a]pyrimidin-5-yl) morpholine] it was 100 to 1000 nM. As to `CC1(C)COCCN1c1ccn2ncc(-c3cn(-c4cn([C@H]5CC[C@H](CO)CC5)nc4C(F)F)nn3)c2n1` [Compound 88A, ((1r,4r)-4-(3-(difluoromethyl)-4-(4-(5-(3,3-dimethylmorpholinyl)pyrazolo[1,5-a]pyrimidin-3-yl)-1H-1,2,3-triazol-1-yl)-1H-pyrazol-1-yl)cyclohexyl)methanol], the 50% inhibitory concentration (IC50) is 100 to 1000 nM. In the case of `CC1(C)CN(c2ccn3ncc(-c4cn(-c5cn(C6CCC(CO)CC6)nc5C(F)F)nn4)c3n2)CCO1` (stereo not shown) [Compound 89A, ((1r,4r)-4-(3-(difluoromethyl)-4-(4-(5-(2,2-dimethylmorpholinyl)pyrazolo[1,5-a]pyrimidin-3-yl)-1H-1,2,3-triazol-1-yl)-1H-pyrazol-1-ylcyclohexyl)methanol] it was 100 to 1000 nM; in that of `OC[C@H]1CC[C@H](n2cc(-n3cc(-c4cnn5ccc(N6CC7(COC7)C6)nc45)nn3)c(C(F)F)n2)CC1` [Compound 90A, ((1r, 4r)-4-(4-(4-(5-(2-oxa-6-azaspiro[3.3]heptan-6-yl)pyrazolo[1,5-a]pyrimidin-3-yl)-1H-1,2,3-triazol-1-yl)-3-(difluoromethyl)-1H-pyrazol-1-yl]cyclohexyl)methanol], 100 to 1000 nM.
